The source of these data is PMC8358460, “Structural basis for the binding of the cancer targeting scorpion toxin, ClTx, to the vascular endothelia growth factor receptor neuropilin-1” (Current Research in Structural Biology, 2021).

The structures appear in SMILES notation. “Also recorded” adds a separate entry of the source.

Assay [1] deals with T1, human NRP1-b1 domain (Homo sapiens, UniProt O14786). As to the kind of experiment: ITC competition: ClTx injected into NRP1-b1 in presence of EG00229. The assay is classed as binding. As to conditions: 800 μM ClTx into 40 μM NRP1-b1 + 200 μM EG00229; 50 mM sodium citrate pH 5.5, 150 mM NaCl, 32 °C.
The target of assay [2] is T1, human NRP1-b1 domain. Put plainly: ITC measurement of binding to NRP1-b1 domain. As to conditions: pH 5.5, 32 °C.
Assay [3] addresses T1, human NRP1-b1 domain. As to the kind of experiment: NMR competition titration of 15N-ClTx/NRP1-b1 with EG00229. The assay is classed as binding. Conditions: 413 μM EG00229 added to 55 μM 15N-ClTx + 125 μM NRP1-b1; 50 mM sodium citrate pH 5.5, 150 mM NaCl, 5% D2O, 298 K.

T1 sequence (O14786 273-427): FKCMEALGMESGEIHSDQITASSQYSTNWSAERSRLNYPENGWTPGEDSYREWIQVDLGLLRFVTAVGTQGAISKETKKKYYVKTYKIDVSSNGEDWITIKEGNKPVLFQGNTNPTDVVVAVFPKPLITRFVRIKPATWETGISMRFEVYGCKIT

Turning to `NC(N)=NCCC[C@H](NC(=O)c1sccc1NS(=O)(=O)c1cccc2nsnc12)C(=O)O` [EG00229], the “inhibition of the ClTx–NRP1-b1 interaction by EG00229” value on human NRP1-b1 domain [1] was “fully inhibited; also recorded: completely blocks chlorotoxin from binding”. On human NRP1-b1 domain [2], the “binding strength, in words” value is “strong binding”. Also, at human NRP1-b1 domain [3], the “recovery of backbone signal of 15N ClTx on addition of EG00229” value is “completely recovered”.
